Laboratory results taken from PMC8746328, “Three New Isoprenylated Flavones from Artocarpus chama Stem and Their Bioactivities” (Molecules, 2021).
In brackets after ≈: the same amount, converted by molar mass. Like-named read-outs stand apart in the source and are kept apart here.

What was measured:
[1] = tested on: methicillin-resistant Staphylococcus aureus (DMST20654); assay: Antimicrobial activity, broth microdilution; type: cell-based; conditions: MRSA
Description: (§1) Microorganisms that cause skin infection, such as Staphylococcus aureus (ATTC 25923), Staphylococcus epidermidis (TISTR 517), Cutibacterium acnes (DMST 14916), and methicillin-resistant Staphylococcus aureus (DMST20654),t were selected for this study. The isolated compounds were determined for minimum inhibitory concentration (MIC) and minimum bactericidal concentration (MBC) by a modified broth microdilution method. Briefly, 20 µL of the test samples (dilution series ranging from 2560 to 1.25 µg/mL) was added in wells 1 to 12. Then, 80 µL of media was added into each well. Next, 100 µL of the inoculum (concentration 10^6 CFU/mL) was added in each well. The final concentration of inoculum in each well was 5 × 10^5 CFU/mL. Then, the cultures were incubated follow the conditions. Incubation mixtures showing positive results of inhibitory effect (MIC) were streaked on media agar, and then incubated by following the conditions.

[2] = tested on: Cutibacterium acnes (DMST 14916); assay: Antimicrobial activity, broth microdilution; type: cell-based; conditions: C. acnes
Description: as §1

[3] = tested on: Staphylococcus aureus (ATTC 25923); assay: Antimicrobial activity, broth microdilution; type: cell-based; conditions: S. aureus
Description: as §1

[4] = tested on: Staphylococcus epidermidis (TISTR 517); assay: Antimicrobial activity, broth microdilution; type: cell-based; conditions: TISTR517, S. epidermidis
Description: as §1

tyrosinase enzyme = assay: Enzymatic antityrosinase activity, dopachrome method (L-Dopa substrate); type: biochemical; conditions: pH 6.8, 25 °C
Description: Antityrosinase activity was determined by the dopachrome method. L-dopa was used as the substrate. Oxidation of L-Dopa to dopachrome which, represented by red color, could be detected by visible light at 492 nm. Briefly, 140 µL of phosphate buffer pH 6.8, 20 µL of sample solution (200 µg/mL), and 2 µL of tyrosinase enzyme solution (203.3 unit/mL) were mixed in a 96-well plate at 25 °C for 10 min. Then, 20 µL of L-Dopa (0.85 mM) was added, and optical density (OD) was detected. After incubation at 25 °C for 20 min, OD was detected again. Dimethyl sulfoxide (DMSO) was used as a negative control. […] The percent inhibition of tyrosinase reaction was calculated by the following equation:Tyrosinase inhibition (%) = [1 − (OD492 of sample/OD492 of control)] × 100.

B16F1 melanoma cells [5] = assay: Intracellular antityrosinase activity; type: cell-based, murine; conditions: 50 µg/mL, 48 h
Description: (§2) Murine melanoma B16-F1 cells (CLS-400122) were cultured in DMEM or Dulbecco’s modified Eagle medium containing 10% FBS heat-inactivated fetal bovine serum at 37 °C in a humidified atmosphere with 5% CO2. When cells reached 70–80% confluence cell viability, cellular tyrosinase activity and melanin content were measured. First, 3 × 10^5 cells/well were seeded in 12-well plates and allowed to adhere at 37 °C for 12 h. Cells were treated with test samples; control cells were treated with 0.5% DMSO. After 48 h incubation, cells were lysed with RIPA and centrifuged at 14,000 rpm for 20 min (4 °C) in order to separate the supernatant for measurement of tyrosinase activity, and the cell pellet was measured for melanin content. The supernatant was collected for determination of protein content by the Bradford method, with bovine serum albumin (BSA) used as a standard. The supernatant of lysate cells and 2 mg/mL L-Dopa were added to a 96-well plate and incubated at 25 °C for 1 h. After that, optical densities were determined at 492 nm. Tyrosinase inhibition was then calculated.

B16F1 melanoma cells [6] = assay: Melanin content; type: cell-based, murine; conditions: 50 µg/mL, 48 h
Description: as §2, with “Cell pellets were dissolved” for “The supernatant was collected for determination of protein content by the Bradford method,”, “1M NaOH” for “bovine serum albumin (BSA) used as a standard. The supernatant of lysate cells and 2 mg/mL L-Dopa were added to a 96-well plate”, “55” for “25”, “Melanin content was calculated by comparison with the standard curve of synthetic melanin” for “After that, optical densities were determined”, “475” for “492”, “nm.” for “nm. Tyrosinase inhibition was then calculated.”

Compound | MIC [2] | MIC [3] | MIC [4] | IC50 on tyrosinase inhibitory activity (tyrosinase enzyme) | MIC ([1]; read-out: MIC) | MBC [1] | MIC [1] | MBC [2] | MBC [3] | MBC [4] | MBC ([1]; read-out: MBC) | Intracellular antityrosinase activity (result in words) (B16F1 melanoma cells [5]) | Intracellular antityrosinase activity (result in words) (B16F1 melanoma cells [5]; listed as artocarpanone) | Melanin content (result in words) (B16F1 melanoma cells [6])
CN[C@H](CC(C)C)C(=O)N[C@H]1C(=O)N[C@@H](CC(N)=O)C(=O)N[C@H]2C(=O)N[C@H]3C(=O)N[C@H](C(=O)N[C@H](C(=O)O)c4cc(O)cc(O)c4-c4cc3ccc4O)[C@H](O)c3ccc(c(Cl)c3)Oc3cc2cc(c3O[C@@H]2O[C@H](CO)[C@@H](O)[C@H](O)[C@H]2O[C@H]2C[C@](C)(N)[C@H](O)[C@H](C)O2)Oc2ccc(cc2Cl)[C@H]1O [Van, Vancomycin, reference compound] | – | – | – | – | – | 0.5 µg/mL (≈ 0.345 µM) | 0.125 µg/mL (≈ 0.0863 µM) | – | – | – | – | – | – | –
Cc1onc(-c2ccccc2)c1C(=O)N[C@@H]1C(=O)N2[C@@H]1SC(C)(C)[C@@H]2C(=O)O [Oxa, Oxacillin, reference compound] | 0.5 µg/mL (≈ 1.25 µM) | 0.125 µg/mL (≈ 0.311 µM) | 0.5 µg/mL (≈ 1.25 µM) | – | – | – | – | 0.5 µg/mL (≈ 1.25 µM) | 0.125 µg/mL (≈ 0.311 µM) | 0.5 µg/mL (≈ 1.25 µM) | – | – | – | –
COc1cc(O)c(-c2oc3cc(O)cc(O)c3c(=O)c2CC=C(C)C)cc1O [Compound 3, 3-Prenyl-5,7,2′,5′-tetrahydroxy-4′-methoxyflavone] | 128 µg/mL (≈ 333 µM) | 4 µg/mL (≈ 10.4 µM) | 16 µg/mL (≈ 41.6 µM) | >200 µg/mL | 4 µg/mL (≈ 10.4 µM) | – | – | > 256 µg/mL | 16 µg/mL (≈ 41.6 µM) | 64 µg/mL (≈ 167 µM) | 32 µg/mL (≈ 83.3 µM) | – | – | –
CC(C)=CCCC(C)=CCCC(C)=CCc1cc(-c2cc(=O)c3c(O)cc(O)cc3o2)ccc1O [Compound 1, 3′-Farnesylapigenin] | > 256 µg/mL | 256 µg/mL (≈ 539 µM) | 256 µg/mL (≈ 539 µM) | 135.70 ± 1.16 µg/mL (≈ 286 µM) | > 256 µg/mL | – | – | > 256 µg/mL | > 256 µg/mL | > 256 µg/mL | > 256 µg/mL | – | – | –
CC(C)=CC(O)c1c(-c2cc(O)c(O)cc2O)oc2cc(O)cc(O)c2c1=O (stereo not shown) [Compound 2, 3-(Hydroxyprenyl) isoetin] | 128 µg/mL (≈ 331 µM) | 16 µg/mL (≈ 41.4 µM) | 16 µg/mL (≈ 41.4 µM) | >200 µg/mL | 16 µg/mL (≈ 41.4 µM) | – | – | > 256 µg/mL | 32 µg/mL (≈ 82.8 µM) | 32 µg/mL (≈ 82.8 µM) | 64 µg/mL (≈ 166 µM) | – | – | –

Second part, led by results:

MIC [2] | MIC [3] | MIC [4] | IC50 on tyrosinase inhibitory activity (tyrosinase enzyme) | MIC ([1]; read-out: MIC) | Compound | MBC [1] | MIC [1] | MBC [2] | MBC [3] | MBC [4] | MBC ([1]; read-out: MBC) | Intracellular antityrosinase activity (result in words) (B16F1 melanoma cells [5]) | Intracellular antityrosinase activity (result in words) (B16F1 melanoma cells [5]; listed as artocarpanone) | Melanin content (result in words) (B16F1 melanoma cells [6])
8 µg/mL (≈ 18.3 µM) | 2 µg/mL (≈ 4.58 µM) | 2 µg/mL (≈ 4.58 µM) | >200 µg/mL | 2 µg/mL (≈ 4.58 µM) | COc1cc2oc(-c3ccc(O)cc3O)c(CC=C(C)C)c(=O)c2c(O)c1/C=C/C(C)C [Compound 8, artocarpin] | – | – | 32 µg/mL (≈ 73.3 µM) | 4 µg/mL (≈ 9.16 µM) | 32 µg/mL (≈ 73.3 µM) | 2 µg/mL (≈ 4.58 µM) | – | – | –
256 µg/mL (≈ 589 µM) | 4 µg/mL (≈ 9.21 µM) | 4 µg/mL (≈ 9.21 µM) | >200 µg/mL | 16 µg/mL (≈ 36.8 µM) | CC1(C)C=Cc2c(cc3oc4c(c(=O)c3c2O)CC2c3c(c(O)cc(O)c3-4)OC2(C)C)O1 (stereo not shown) [Compound 5, Isocycloartobiloxanthone] | – | – | > 256 µg/mL | 8 µg/mL (≈ 18.4 µM) | 8 µg/mL (≈ 18.4 µM) | 64 µg/mL (≈ 147 µM) | – | – | –
> 256 µg/mL | 256 µg/mL (≈ 847 µM) | 128 µg/mL (≈ 423 µM) | – | > 256 µg/mL | COc1cc([C@@H]2CC(=O)c3c(O)cc(O)cc3O2)ccc1O [Compound 4, Homoeriodictyol] | – | – | > 256 µg/mL | > 256 µg/mL | 256 µg/mL (≈ 847 µM) | > 256 µg/mL | – | – | –
32 µg/mL (≈ 106 µM) | 64 µg/mL (≈ 212 µM) | 64 µg/mL (≈ 212 µM) | 38.78 ± 1.02 µg/mL (≈ 128 µM) | 128 µg/mL (≈ 423 µM) | COc1cc(O)c2c(c1)O[C@H](c1ccc(O)cc1O)CC2=O [Compound 6, Artocarpanone] | – | – | 64 µg/mL (≈ 212 µM) | 256 µg/mL (≈ 847 µM) | 128 µg/mL (≈ 423 µM) | > 256 µg/mL | exhibited antityrosinase activity | exhibited intracellular antityrosinase activity | could reduce the amount of melanin content
> 256 µg/mL | > 256 µg/mL | 256 µg/mL (≈ 940 µM) | >200 µg/mL | > 256 µg/mL | O=C1C[C@@H](c2ccc(O)cc2)Oc2cc(O)cc(O)c21 [Compound 7, Naringenin] | – | – | > 256 µg/mL | > 256 µg/mL | > 256 µg/mL | > 256 µg/mL | – | – | –
